From USRE44873E1, “Imidazole-5-carboxylic acid derivatives, the preparation method therefor and the uses thereof” (Salubris Asset Management Co., Ltd., priority 2006, dated 2014)

Legend:
[1] = tested on: spontaneously hypertensive rat (SHR); experiment: Effect of lowering blood pressure in spontaneously hypertensive rats (administration through stomach fistula); format: in vivo; conditions: female SHR, 30 mg/kg through stomach fistula, recorded in 6 hours after administration; for Systolic blood pressure post-administration: first figure of pair; for Diastolic blood pressure post-administration: second figure of pair
Description: A female spontaneously hypertensive rat (SHR) is anaesthetize by abdominal cavity injection with diazepam of 5 mg/kg and ketamine hydrochloride of 50 mg/kg and its back is fixed. An artery conduit is inserted from the left of a femoral artery to a lower abdominal aorta, and then a stomach fistula treatment is operated. After 20-30 hours for postoperative recovery, the artery conduit is connected to a pressure transducer by a perfusion three-way tube. Blood pressure signals per pulse are transformed into biologic signals by the pressure transducer, and systolic blood pressures and diastolic blood pressures per pulse are real-time recorded by a computer. After the SHR is connected to the computer system for 4-5 hours, blood pressures and palpitation intervals in one hour are recorded as normal comparing data before administration. Afterwards, the medicine with a dosage of 30 mg/kg and a volume of 2 ml/kg is administrated through the stomach fistula. Blood pressures in 6 hours after administration are continuously recorded to observe change of systolic blood pressure and diastolic blood pressure.
A female spontaneously hypertensive rat (SHR) is anaesthetize by abdominal cavity injection with diazepam of 5 mg/kg and ketamine hydrochloride of 50 mg/kg and its back is fixed. An artery conduit is inserted from the left of a femoral artery to a lower abdominal aorta, and than a stomach fistula treatment is operated. After 20-30 hours for postoperative recovery, the artery conduit is connected to it pressure transducer by a perfusion three-way tube. Blood pressure signals per pulse are transformed into biologic signals by pressure transducer, and systolic blood pressures and diastolic blood pressures per pulse are real-time recorded by a computer. When the SHR is connected to the computer system for 4-5 hours, blood pressures and palpitation intervals in one hour are recorded as normal comparing data before administration. Afterwards, it is adminstrated with a dosage of 30 mg/kg and a volume of 2 ml/kg through the stomach fistula. Blood pressures in 6 hours after administration are continuously recorded to observe changes of systolic blood pressure and diastolic blood pressure.

in vivo = conditions: both, Kunming, mouse, po
Description: (§1) 20 Kunming mice with weight of 18-22 g are randomly divided into two groups, each group including 10 ones with two identical halves for male and female. The mice are fasted for 6 hours, and then the two groups of mice are administrated by intragastric infusion with the compounds of the present invention in the amount of 10 g/kg, 5 g/kg, 2 g/kg. The administration volume is 0.8 ml/20 g, and the solvent is 0.5% CMC-Na. Observe and accumulate the number of dead animals during 14 days after administration (one administration) to calculate LD50.

[2] = Efficiency of active metabolism conversion (EXP3174 in blood plasma by HPLC after oral dosing); format: in vivo; conditions: SD rats, 20 mg/kg oral intragastric infusion, blood at 3 hours
Description: The SD rats are orally administrated by intragastric infusion with a dosage of 20 mg/kg. Blood samples are collected from an orbit at the time of 3 hours since the administration. The blood samples freely drop into centrifuge tubes. The sampling amount of blood is 0.3˜0.5 ml, and the blood plasma is centrifugalized. After the sample is pre-treated, the blood is analyzed by using HPLC method to get the amount of EXP3174 in the blood plasma. Based on the molar ratio of the amount of EXP3174 and the amount of administration dosage, a ratio of the experiment compounds being converted into active metabolite in vivo may be calculated.

Kunming mice = experiment: Evaluation of toxicity (acute LD50, intragastric); conditions: one intragastric administration, 14 days observation, 0.5% CMC-Na
Description: as §1

[3] = cited from earlier work
[4] = relative to EXP3174; cited from earlier work

CCCCc1nc(Cl)c(C(=O)OC2OC(=O)c3ccccc32)n1Cc1ccc(-c2ccccc2-c2nnn[nH]2)cc1 (racemic) [Compound 2, (+/−)2-butyl-4-chloro-1-[2′-(1H-tetrazol-5-yl)1,1′-biphenyl-methyl]imidazole-5-carboxylic acid, 2-[C]-benzofuranonyl ester]
Systolic blood pressure post-administration [1]: 155 mmHg
Diastolic blood pressure post-administration [1]: 105 mmHg
melting point: 120.6 to 124.6 °C

CCCCc1nc(Cl)c(C(=O)OC(C)OC(=O)OC2CCCCC2)n1Cc1ccc(-c2ccccc2-c2nnn[nH]2)cc1 (racemic) [Compound 7, (+/−)2-butyl-4-chloro-1-[2′-(1H-tetrazol-5-yl)1,1′-biphenyl-methyl]imidazole-5-carboxylic acid, 1-[(cyclohexyloxycarbonyl)oxy]ethyl ester]
Systolic blood pressure post-administration [1]: 157 mmHg
Diastolic blood pressure post-administration [1]: 103 mmHg

CCCCc1nc(Cl)c(C(=O)OCC)n1Cc1ccc(-c2ccccc2-c2nnn[nH]2)cc1 [Compound 1, 2-butyl-4-chloro-1-[2′-(1H-tetrazol-5-yl)1,1′-biphenyl-methyl]imidazole-5-carboxylic acid, ethyl ester]
Systolic blood pressure post-administration [1]: 159 mmHg
Diastolic blood pressure post-administration [1]: 103 mmHg

CCCCc1nc(Cl)c(C(=O)OCc2oc(=O)oc2C)n1Cc1ccc(-c2ccccc2-c2nnn[nH]2)cc1 [Compound 3, 2-butyl-4-chloro-1-[2′-(1H-tetrazol-5-yl)1,1′-biphenyl-methyl]imidazole-5-carboxylic acid, cyclic 2,3-carbonate]
Systolic blood pressure post-administration [1]: 158 mmHg
Diastolic blood pressure post-administration [1]: 102 mmHg

CCCCc1nc(Cl)c(C(=O)OCOC(=O)C(C)(C)C)n1Cc1ccc(-c2ccccc2-c2nnn[nH]2)cc1 [Compound 4, 2-butyl-4-chloro-1-[2′-(1H-tetrazol-5-yl)1,1′-biphenyl-methyl]imidazole-5-carboxylic acid, pivaloyloxymethyl ester]
Systolic blood pressure post-administration [1]: 159 mmHg
Diastolic blood pressure post-administration [1]: 102 mmHg

CCCCc1nc(Cl)c(C(=O)OC(C)OC(=O)OC(C)C)n1Cc1ccc(-c2ccccc2-c2nnn[nH]2)cc1 (stereo not drawn) [Compound 5, 2-butyl-4-chloro-1-[2′-(1H-tetrazol-5-yl)1,1′-biphenyl-methyl]imidazole-5-carboxylic acid, 1-[(isopropoxycarbonyl)oxy]ethyl ester]
Systolic blood pressure post-administration [1]: 157 mmHg
Diastolic blood pressure post-administration [1]: 101 mmHg

CCCCc1nc(Cl)c(C(=O)OC(C)OC(=O)OC(C)(C)C)n1Cc1ccc(-c2ccccc2-c2nnn[nH]2)cc1 (stereo not drawn) [Compound 6, 2-butyl-4-chloro-1-[2′-(1H-tetrazol-5-yl)1,1′-biphenyl-methyl]imidazole-5-carboxylic acid, 1-[(tert-butoxycarbonyl)oxy]ethyl ester]
Systolic blood pressure post-administration [1]: 159 mmHg
Diastolic blood pressure post-administration [1]: 103 mmHg
melting point: 60.5 to 62 °C

CCCCc1nc(Cl)c(C(=O)OCOC(=O)OC(C)C)n1Cc1ccc(-c2ccccc2-c2nnn[nH]2)cc1 [Compound 8, 2-butyl-4-chloro-1-[2′-(1H-tetrazol-5-yl)1,1′-biphenyl-methyl]imidazole-5-carboxylic acid, 1-[(isopropoxycarbonyl)oxy]methyl ester]
Systolic blood pressure post-administration [1]: 156 mmHg
Diastolic blood pressure post-administration [1]: 101 mmHg
LD50 at 14 days (in vivo): > 10000 mg/kg

CCCCc1nc(Cl)c(C(=O)OCOC(=O)OCC)n1Cc1ccc(-c2ccccc2-c2nnn[nH]2)cc1 [Compound 9, 2-butyl-4-chloro-1-[2′-(1H-tetrazol-5-yl)1,1′-biphenyl-methyl]imidazole-5-carboxylic acid, 1-[(ethoxycarbonyl)oxy]methyl ester]
Systolic blood pressure post-administration [1]: 159 mmHg
Diastolic blood pressure post-administration [1]: 104 mmHg
LD50 at 14 days (in vivo): > 10000 mg/kg

CCCCc1nc(Cl)c(C(=O)OCOC(=O)OC(C)(C)C)n1Cc1ccc(-c2ccccc2-c2nnn[nH]2)cc1 [Compound 10, 2-butyl-4-chloro-1-[2′-(1H-tetrazol-5-yl)1,1′-biphenyl-methyl]imidazole-5-carboxylic acid, 1-[(tert-butoxycarbonyl)oxy]methyl ester]
Systolic blood pressure post-administration [1]: 158 mmHg
Diastolic blood pressure post-administration [1]: 103 mmHg
LD50 at 14 days (in vivo): > 10000 mg/kg

CCCCc1nc(Cl)c(C(=O)OC(C)OC(=O)OCC)n1Cc1ccc(-c2ccccc2-c2nn[nH]n2)cc1 (stereo not drawn) [HN-65021]
metabolism conversion ratio (molar ratio of EXP3174 in blood plasma to administered dosage) [2]: 1.5%
LD50 (Kunming mice): 5000 to 8000 mg/kg

CCCCc1nc(Cl)c(CO)n1Cc1ccc(-c2ccccc2-c2nn[nH]n2)cc1 [losartan potassium]
Share of losartan potassium metabolized in vivo to its active substance EXP3174 [3]: 14%
LD50 at 14 days (in vivo): 2000 mg/kg
Activity in reducing blood pressure as share of that of EXP3174 [4]: 3%
